Patent US12365692B2, “6-hydroxy-8-oxatricyclo[3.2.1.02,4]octane-2-carboxamide derivatives for inducing chondrogenesis for treating joint damage” (NOVARTIS AG, priority 2018, dated 2025)
pIC50: −log10 of the molar value.

Test system: ALP in NHAC (normal human articular chondrocytes)
Assay: Alkaline Phosphatase (ALP) activity assay: ALP staining and quantitation in NHACs (prevention of chondrocyte hypertrophy)
Format: cell-based
Conditions: Chondrocyte, 288 h, human IL-1 beta 10 ng/mL, 12 days; for pIC50: Fast Blue RR staining, high content imaging; for Emax: read-out: ALP in NHAC (% Efficacy)
Method: The compounds of the present invention were evaluated in the Alkaline Phosphatase (ALP) activity assay to determine the ability of the compounds to prevent chondrocyte hypertrophy in normal human articular chondrocytes (NHACs).
Normal human articular chondrocytes (NHACs) were purchased from PromoCell (Heidelberg, Germany) and grown in Chondrocyte Growth Medium (CGM; Lonza, Walkersville, Md.).
NHACs were expanded in Chondrocyte Growth Medium (CGM) from Lonza until they reached a 60-80% confluency. To initiate differentiation, 7,500 cells were plated/well with indicated test compound dose in 384-well Cell Carrier Ultra plates (Perkin Elmer) with DMEM (SH30022—HyClone) containing 10% FBS (35-015-CV—Corning), 1% Pen/Strep antibiotics (SV30010—HyClone), and 1% Normocin (50 mg/mL—InvivoGen). Cells with test compounds were incubated at 37° C., 5% CO2 for 5 hours and then added human IL-1 beta (AF-200-1B—Peprotech) to each well at a final concentration of 10 ng/mL and incubated at 37° C., 5% CO2 for 12 days.
To detect the presence of hypertrophic cells, NHACs were fixed with 4% paraformaldehyde and Hoechst 33342 (Invitrogen) dye for 30 minutes, rinsed in PBS, then stained with Fast Blue RR Salt (F0500—Sigma) with Naphthol AS-MX Phosphate Alkaline Solution, 0.25% (855—Sigma-Aldrich).
The staining was imaged by fluoresecent microscopy, using the 561 nm wavelength, and/or quantified by high content imaging with the ImageXpress Confocal (Molecular Devices, Sunnyvale, CA). Data analyses were performed with a customized multiwavelength cell-scoring application The activity of the compounds of the present invention in the ALP assay is summarized in Table 2.

Row | SMILES | pIC50 | Emax [%]
1 | Cn1cc([C@@]23C[C@]2(C(=O)Nc2cc(C(F)(F)F)ccn2)[C@H]2C[C@H](O)[C@@H]3O2)c(C(F)(F)F)n1 (racemic) [Example 43, rac-(1R,2R,4S,5R,6S)-6-hydroxy-4-(1-methyl-3-(trifluoromethyl)-1H-pyrazol-4-yl)-N-(4-(trifluoromethyl)pyridin-2-yl)-8-oxatricyclo[3.2.1.02,4]octane-2-carboxamide] | < 4.52 | 49
2 | Cn1cc([C@@]23C[C@]2(C(=O)Nc2cc(C(F)(F)F)cc(Cl)n2)[C@H]2C[C@H](O)[C@@H]3O2)c(C(F)(F)F)n1 (racemic) [Example 44, rac-(1R,2R,4S,5R,6S)—N-(6-chloro-4-(trifluoromethyl)pyridin-2-yl)-6-hydroxy-4-(1-methyl-3-(trifluoromethyl)-1H-pyrazol-4-yl)-8-oxatricyclo[3.2.1.02,4]octane-2-carboxamide] | < 4.52 | 37
3 | Cn1cc([C@@]23C[C@]2(C(=O)Nc2cc(C(F)(F)F)c(Cl)cn2)[C@H]2C[C@H](O)[C@@H]3O2)c(C(F)(F)F)n1 (racemic) [Example 45, rac-(1R,2R,4S,5R,6S)—N-(5-chloro-4-(trifluoromethyl)pyridin-2-yl)-6-hydroxy-4-(1-methyl-3-(trifluoromethyl)-1H-pyrazol-4-yl)-8-oxatricyclo[3.2.1.02,4]octane-2-carboxamide] | < 4.52 | 46
4 | Cn1cc([C@@]23C[C@]2(C(=O)Nc2cc(C(F)(F)F)cc(C4CC4)n2)[C@H]2C[C@H](O)[C@@H]3O2)c(C(F)(F)F)n1 (racemic) [Example 46, rac-(1R,2R,4S,5R,6S)—N-(6-cyclopropyl-4-(trifluoromethyl)pyridin-2-yl)-6-hydroxy-4-(1-methyl-3-(trifluoromethyl)-1H-pyrazol-4-yl)-8-oxatricyclo[3.2.1.02,4]octane-2-carboxamide] | 4.57 | 82
5 | Cc1cc(C(F)(F)F)cc(NC(=O)[C@]23C[C@@]2(c2cn(C)nc2C(F)(F)F)[C@H]2O[C@@H]3C[C@@H]2O)n1 (racemic) [Example 47, rac-(1R,2R,4S,5R,6S)-6-hydroxy-4-(1-methyl-3-(trifluoromethyl)-1H-pyrazol-4-yl)-N-(6-methyl-4-(trifluoromethyl)pyridin-2-yl)-8-oxatricyclo[3.2.1.02,4]octane-2-carboxamide] | < 4.52 | 36
6 | CCOc1cc(C(F)(F)F)cc(NC(=O)[C@]23C[C@@]2(c2cn(C)nc2C(F)(F)F)[C@H]2O[C@@H]3C[C@@H]2O)n1 (racemic) [Example 48, rac-(1R,2R,4S,5R,6S)—N-(6-ethoxy-4-(trifluoromethyl)pyridin-2-yl)-6-hydroxy-4-(1-methyl-3-(trifluoromethyl)-1H-pyrazol-4-yl)-8-oxatricyclo[3.2.1.02,4]octane-2-carboxamide] | < 4.52 | 40
7 | Cn1cc([C@@]23C[C@]2(C(=O)Nc2cccc(C(F)(F)F)c2)[C@H]2C[C@H](O)[C@@H]3O2)c(C(F)(F)F)n1 (racemic) [Example 49, rac-(1R,2R,4S,5R,6S)-6-hydroxy-4-(1-methyl-3-(trifluoromethyl)-1H-pyrazol-4-yl)-N-(3-(trifluoromethyl)phenyl)-8-oxatricyclo[3.2.1.02,4]octane-2-carboxamide] | < 4.52 | 35
8 | Cc1c(NC(=O)[C@]23C[C@@]2(c2cn(C)nc2C(F)(F)F)[C@H]2O[C@@H]3C[C@@H]2O)cccc1C(F)(F)F (racemic) [Example 50, rac-(1R,2R,4S,5R,6S)-6-hydroxy-4-(1-methyl-3-(trifluoromethyl)-1H-pyrazol-4-yl)-N-(2-methyl-3-(trifluoromethyl)phenyl)-8-oxatricyclo[3.2.1.02,4]octane-2-carboxamide] | < 4.52 | 33
9 | Cc1ccc(NC(=O)[C@]23C[C@@]2(c2cn(C)nc2C(F)(F)F)[C@H]2O[C@@H]3C[C@@H]2O)cc1C(F)(F)F (racemic) [Example 51, rac-(1R,2R,4S,5R,6S)-6-hydroxy-4-(1-methyl-3-(trifluoromethyl)-1H-pyrazol-4-yl)-N-(4-methyl-3-(trifluoromethyl)phenyl)-8-oxatricyclo[3.2.1.02,4]octane-2-carboxamide] | < 4.52 | 45
10 | Cc1cc(NC(=O)[C@]23C[C@@]2(c2cn(C)nc2C(F)(F)F)[C@H]2O[C@@H]3C[C@@H]2O)cc(C(F)(F)F)c1 (racemic) [Example 52, rac-(1R,2R,4S,5R,6S)-6-hydroxy-4-(1-methyl-3-(trifluoromethyl)-1H-pyrazol-4-yl)-N-(3-methyl-5-(trifluoromethyl)phenyl)-8-oxatricyclo[3.2.1.02,4]octane-2-carboxamide] | 4.68 | 70
11 | Cc1ccc(C(F)(F)F)cc1NC(=O)[C@]12C[C@@]1(c1cn(C)nc1C(F)(F)F)[C@H]1O[C@@H]2C[C@@H]1O (racemic) [Example 53, rac-(1R,2R,4S,5R,6S)-6-hydroxy-4-(1-methyl-3-(trifluoromethyl)-1H-pyrazol-4-yl)-N-(2-methyl-5-(trifluoromethyl)phenyl)-8-oxatricyclo[3.2.1.02,4]octane-2-carboxamide] | < 4.52 | 23
12 | Cn1cc([C@@]23C[C@]2(C(=O)Nc2cccc(C(F)(F)F)c2F)[C@H]2C[C@H](O)[C@@H]3O2)c(C(F)(F)F)n1 (racemic) [Example 54, rac-(1R,2R,4S,5R,6S)—N-(2-fluoro-3-(trifluoromethyl)phenyl)-6-hydroxy-4-(1-methyl-3-(trifluoromethyl)-1H-pyrazol-4-yl)-8-oxatricyclo[3.2.1.02,4]octane-2-carboxamide] | < 4.52 | 7
13 | Cn1cc([C@@]23C[C@]2(C(=O)Nc2ccc(F)c(C(F)(F)F)c2)[C@H]2C[C@H](O)[C@@H]3O2)c(C(F)(F)F)n1 (racemic) [Example 55, rac-(1R,2R,4S,5R,6S)-N-(4-fluoro-3-(trifluoromethyl)phenyl)-6-hydroxy-4-(1-methyl-3-(trifluoromethyl)-1H-pyrazol-4-yl)-8-oxatricyclo[3.2.1.02,4]octane-2-carboxamide] | < 4.52 | 14
14 | Cn1cc([C@@]23C[C@]2(C(=O)Nc2cc(F)cc(C(F)(F)F)c2)[C@H]2C[C@H](O)[C@@H]3O2)c(C(F)(F)F)n1 (racemic) [Example 56, rac-(1R,2R,4S,5R,6S)—N-(3-fluoro-5-(trifluoromethyl)phenyl)-6-hydroxy-4-(1-methyl-3-(trifluoromethyl)-1H-pyrazol-4-yl)-8-oxatricyclo[3.2.1.02,4]octane-2-carboxamide] | < 4.52 | 30
15 | Cn1cc([C@@]23C[C@]2(C(=O)Nc2cc(C(F)(F)F)ccc2F)[C@H]2C[C@H](O)[C@@H]3O2)c(C(F)(F)F)n1 (racemic) [Example 57, rac-(1R,2R,4S,5R,6S)-N-(2-fluoro-5-(trifluoromethyl)phenyl)-6-hydroxy-4-(1-methyl-3-(trifluoromethyl)-1H-pyrazol-4-yl)-8-oxatricyclo[3.2.1.02,4]octane-2-carboxamide] | < 4.52 | 24
16 | Cn1cc([C@@]23C[C@]2(C(=O)Nc2ccc(Cl)c(C(F)(F)F)c2)[C@H]2C[C@H](O)[C@@H]3O2)c(C(F)(F)F)n1 (racemic) [Example 58, rac-(1R,2R,4S,5R,6S)—N-(4-chloro-3-(trifluoromethyl)phenyl)-6-hydroxy-4-(1-methyl-3-(trifluoromethyl)-1H-pyrazol-4-yl)-8-oxatricyclo[3.2.1.02,4]octane-2-carboxamide] | < 4.52 | 29
